Assay results: US5496546A, “Compositions and methods of application of reactive antiviral polyadenylic acid derivatives” (priority 1994, dated 1996)

Key:
HIV RT = molecular target: T1, HIV RT (Human immunodeficiency virus type 1 group M subtype B, UniProt P04585); assay: Inhibition of viral reverse transcriptase in solution, HIV RT; assay type: biochemical
T1 construct: Reverse transcriptase samples from HIV (HIV RT)
Method: Reverse transcriptase samples from HIV (HIV RT) and from Moloney murine leukemia virus (MLV RT) and from avian myeloblastosis virus (AMV RT) were separately incubated with FDNP-poly[A] at 25° C. in a Tris-HCl buffer (0.1M, pH 8.2) containing 1 mM MgCl2 and 125 mM KCl and measured for RT activity. In each experiment, the selected enzyme was incubated for 10 minutes at 25° C. in an incubation mixture containing the potassium salt of the inhibitor at a given concentration. After ten minutes the incubated mixture was rapidly injected into an assay solution and further incubated for 10 min at 37° C., then precipitated with trichloroacetic acid, washed, and assayed for the radioactive polynucleotide formed by scintillation counting. The assay mixture contained 125 mM Tris-HCl (pH 8.2), 1 mM MgCl2, 125 mM KCl, 250 μM [^3 H]dTTP as the substrate and 23 nM Poly[A]-[dT],12 as the template.
Similar results were obtained with DNP-poly[A].

murine leukemia RT = murine leukemia RT (Moloney murine leukemia virus, UniProt P03355); conditions: cited from earlier work
HIV-2 (wild type) = molecular target: T2, HIV-2 (wild type) (Human immunodeficiency virus type 2 subtype A, UniProt P04584); assay: Inhibition of different HIV RTs, poly C-[dG]12-18 template; assay type: biochemical; conditions: poly C-[dG]12-18, [^3 H]dGTP; approximate
T2 construct: with the RT from four different strains of the human virus: HIV-1 RT (wild type), HIV-2 (wild type)

[1] = molecular target: HIV-141,215 RT (AZT-resistant mutant, Thr 215→Tyr, Met 41→Leu) (Human immunodeficiency virus type 1 group M subtype B, UniProt P04585, M628L/T802Y); assay: as above; assay type: biochemical, HIV-1; conditions: poly C-[dG]12-18, [^3 H]dGTP; approximate
HIV-1 RT (wild type) = molecular target: T3, HIV-1 RT (wild type) (Human immunodeficiency virus type 1 group M subtype B, UniProt P04585); assay: as above; assay type: biochemical; conditions: poly C-[dG]12-18, [^3 H]dGTP; approximate
T3 construct: HIV-1 RT (wild type)

[2] = molecular target: T4, HIV-1181c RT (Nevirapine-resistant mutant) (Human immunodeficiency virus type 1 group M subtype B, UniProt P04585, Y768C); assay: as above; assay type: biochemical, HIV-1; conditions: poly C-[dG]12-18, [^3 H]dGTP; approximate
T4 construct: HIV-1181c RT (Nevirapine-resistant mutant)

T2 sequence (P04584 613-1171 limits assumed): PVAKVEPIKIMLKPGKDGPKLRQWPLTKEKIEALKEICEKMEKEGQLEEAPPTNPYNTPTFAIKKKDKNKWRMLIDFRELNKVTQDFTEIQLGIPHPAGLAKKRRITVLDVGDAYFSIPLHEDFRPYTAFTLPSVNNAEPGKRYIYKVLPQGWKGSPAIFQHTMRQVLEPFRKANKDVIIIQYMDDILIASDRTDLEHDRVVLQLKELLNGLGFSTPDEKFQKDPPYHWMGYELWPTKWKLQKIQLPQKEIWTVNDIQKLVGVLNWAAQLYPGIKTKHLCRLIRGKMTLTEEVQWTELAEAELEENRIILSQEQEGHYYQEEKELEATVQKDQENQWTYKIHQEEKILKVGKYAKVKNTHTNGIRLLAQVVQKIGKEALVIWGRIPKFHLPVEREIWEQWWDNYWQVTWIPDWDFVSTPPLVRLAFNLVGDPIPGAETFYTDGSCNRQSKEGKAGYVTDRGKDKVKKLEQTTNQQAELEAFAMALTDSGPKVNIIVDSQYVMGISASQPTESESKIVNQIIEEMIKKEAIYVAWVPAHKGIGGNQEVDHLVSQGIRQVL
T2 sequence (P04584 613-1052 partner limits assumed): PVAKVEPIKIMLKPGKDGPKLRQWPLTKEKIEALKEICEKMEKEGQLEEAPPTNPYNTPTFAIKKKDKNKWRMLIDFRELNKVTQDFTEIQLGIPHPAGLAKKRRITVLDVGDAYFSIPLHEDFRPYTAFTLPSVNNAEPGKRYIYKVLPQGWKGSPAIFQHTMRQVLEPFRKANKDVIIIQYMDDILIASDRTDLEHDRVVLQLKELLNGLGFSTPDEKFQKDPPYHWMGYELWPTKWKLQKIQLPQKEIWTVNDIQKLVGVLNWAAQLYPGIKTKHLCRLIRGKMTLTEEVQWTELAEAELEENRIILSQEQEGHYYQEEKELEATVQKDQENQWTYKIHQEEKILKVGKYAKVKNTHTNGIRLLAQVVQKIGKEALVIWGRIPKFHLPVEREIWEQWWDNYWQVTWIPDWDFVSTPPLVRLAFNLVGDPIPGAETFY

For `Nc1ncnc2c1ncn2[C@@H]1O[C@H](COP(=O)(O)OP(=O)(O)O)[C@@H](Oc2cc(F)c([N+](=O)[O-])cc2[N+](=O)[O-])[C@H]1O` [3'-O-(5-fluoro-2,4-dinitrophenyl) ADP ether], the “molar concentration required to inhibit HIV RT” value (HIV RT) was “million-fold higher molar concentration”.
In the case of `Nc1ncnc2c1ncn2[C@@H]1O[C@H](COP(=O)(O)OP(=O)(O)OP(=O)(O)O)[C@@H](Oc2cc(F)c([N+](=O)[O-])cc2[N+](=O)[O-])[C@H]1O` [the corresponding ATP ether, 3'-O-(5-fluoro-2,4-dinitrophenyl) ATP ether], the “molar concentration required to inhibit HIV RT” value (HIV RT) is reported as “million-fold higher molar concentration”.
In the case of poly(2-fluoroadenylic acid) [(fl^2 A)n], the IC50 (murine leukemia RT) is given as 0.04 µg/mL.
In the case of polyadenylic acid (5') [Poly[A]], the “IC50 of the RT, HIV-2 (wild)” value (HIV-2 (wild type)) is reported as “no inhibitory effect”, the “IC50 of the RT, HIV-141,215” value [1] is reported as “no inhibitory effect” and the “IC50 of the RT, HIV-1 (wild)” value (HIV-1 RT (wild type)) is reported as “no inhibitory effect”. The “IC50 of the RT, HIV-1181C” value [2] was “no inhibitory effect”.
